In one data set the test system is beta 3 vs. beta 2. The note with it: Mol Phar 1994 46(2):357-63; cited from earlier work.
For data set [1], the system named is Human Multiple Myeloma Cells (MM.1S). The data set can be described thus: Anti-proliferation assay (ATPLite, 72 hours), MM.1S.
Data set [2] shares this test system. Description: Antiproliferative activity on MM.1S in the presence of beta adrenergic receptor antagonist (CGP 12177A or ICI 118,551). The format is cell-based. The note with it: Homo sapiens, MM1.S; read-out: percent inhibition of cell proliferation.
Data set [3] concerns MM.1S cells. The data set can be described thus: Annexin V / propidium iodide apoptosis assay, MM.1S. The format is cell-based, human. Particulars: 2 nM bortezomib, 72 hours (FIG. 3). The method, then: Effects on cell viability were determined by measuring the percent of cells that were annexin V positive (an early marker for apoptosis) and by measuring the percent of cells propidium iodide (PI) positive, an indicator that cellular membranes are compromised and a marker of cell death.

Another data set concerns RPMI-8226 cells. Particulars: soft agar, three weeks. As for the experimental part: The effect of BAR agonists on cells grown in soft agar was also determined. This approach allows the measurement of long term cell viability after single agent or combination treatment. […] Cells were washed and plated in soft agar. After three weeks colonies were counted to determine cell viability.

The subject of data set [4] is Human Multiple Myeloma Cells (MM.1S).
In data set [5] the test system is RPMI-8226 multiple myeloma (MM) xenograft. The note with it: Day 19; 10 mg/kg salmeterol, 0.5 mg/kg bortezomib, or both. The method, then: Dexamethasone was administered by intraperitoneal (IP) injection daily for thirty-six treatments (QD×36). Bortezomib was injected intravenously (IV) every third day for six treatments (Q3D×6).
(§1) Group 1—Vehicle (90% PBS+10% EtOH)
Significant endpoints included mean tumor growth inhibition (TGI) or regression, animal weight loss, and potential toxicity. […] Animals were implanted with cancer cells harvested from tissue culture and allowed to establish tumors in SCID mice. Treatment initiated when the mean tumor volume reached 137 mm^3 in size.

For data set [6], the system named is multiple myeloma tumor cells from patients. Description: MTT cell viability assay, multiple myeloma patient tumor cells. A general note: Formazan colour is commonly taken as a measure of viable cells.
Excerpt: Tumor cells were obtained via bone marrow aspirates and affinity selected using CD138-linked magnetic beads.
The test system of data set [7] is Human Multiple Myeloma Cells (MM.1S) cultured in the presence of BAR agonist for one month. The data set can be described thus: Antiproliferative activity on MM.1S cultured one month in the presence of salmeterol or salbutamol. It counts as cell-based. Particulars: for percent inhibition of cell proliferation: MM.1S cultured in Salbutamol for one month (final 150 nM), DEX (μM): 2.0, 0.666, 0.23, 0.074, 0.024, 0.0082, 0.00274, 0.0009, 0. The source says: A recurrent problem in cancer therapy is that prolonged exposure of tumor cells to chemotherapeutic agents can generate cells resistant to agents that initially have antiproliferative or cell killing activity. […] Cells cultured for one month in the presence of BAR agonist were washed to remove drug and put into 384 well plates for 9×9 dose matrix combination screening with BAR agonists and dexamethasone.

The test system of data set [8] is MM.1S cells. Description: Annexin V/PI FACS assay of control MM.1S and cells cultured one month with salmeterol or salbutamol. It counts as cell-based, human. (In general: A flow cytometer gives signals particle by particle.)
Description: Forty eight hours later, the percent of cells positive for Annexin V and propidium iodide (PI) was determined using FACS (FIG. 5).
Data set [9] deals with human multiple myeloma xenografts (MM1S). The data set can be described thus: MM.1S xenograft model in SCID mice. The format is in vivo, mouse. Particulars: Dex 1 mg/kg or salmeterol 10 mg/kg, subcutaneous daily. The method, then: The human multiple myeloma cell line MM1S was injected subcutaneously into the flanks of SCID mice. Five days following the injection of MM1S cells, animals were randomized into the following four treatment groups (n=6-7) based on tumor size.
as §1
The prepared test, positive, and negative control substances were administered via subcutaneous injection daily for up to 85 Days. During the treatment period, tumor volume and animal body weights were measured 3 times per week (Monday, Wednesday and Friday). The animals were removed from the study if there was overall poor body condition, tumor volume above 3000 mm^3, body weight loss greater than or equal to 20% or ulcerated tumors.
The slope of the tumor volume growth of each animal was calculated from the initial study day until the day each animal was removed from the study. From these slopes the mean change in tumor volume per study day was calculated.

Data set [10] has as its system Human Multiple Myeloma Cells (MM.1S). The note with it: Salmeterol 0 μM (single agent), DEX (μM): 0.15, 0.076, 0.038, 0.019, 0.0096.
For data set [11] the test system is unchanged. The data set can be described thus: cells. Particulars: MM1.S.
Data set [12] deals with Human Multiple Myeloma Cells (ANBL-6).
Data set [13] concerns human multiple myeloma cells (MM.1R). The data set can be described thus: Antiproliferative activity of salbutamol on MM.1R after transfection of siRNA. The note with it: 72 hours (FIG. 4). It counts as cell-based. As for the experimental part: Specific gene silencing was greater than 60% as determined by real time PCR analysis 48 hours post-transfection. At 48 hours post-transfection, cells were exposed to the beta 2 receptor agonist salbutamol and incubated an additional 72 hours, and the compounds were assayed for antiproliferative activity.

Setting [14] is: Homo sapiens, MM1.S, read-out: percent inhibition of cell proliferation.

Where “and” joins values, the source holds several entries; their conditions need not be identical. Equal values may be shown once. Read-outs that look alike come from different tables or passages of the source. A value given as a limit tells only on which side of the number the result lay.

With `CC(Cc1ccc(OCC(=O)O)cc1)NCC(O)c1cccc(Cl)c1` (stereo not drawn) [BRL37344, (4-(2-((2-(3-chlorophenyl)-2-hydroxyethyl)amino)propyl)phenoxy)acetic acid], in the data set on beta 3 vs. beta 2, the “selectivity for beta 3 vs. beta 2” value is given as 76 fold. Moreover, the inhibition at 0.01 µM was 10% in [1] (setting [14]) and -8.2% in [2]. Moreover, the inhibition at 0.02 µM in data set [1] (setting [14]) was 10%; in data set [2] it was -12%. The “single agent antiproliferative activity” value in data set [1] (MM.1S (Table 45)) was “not very active”.
The viability is a read-out of living cells in per cent, often relative to untreated cells. Take `CC(C)C[C@H](NC(=O)[C@H](Cc1ccccc1)NC(=O)c1cnccn1)B(O)O` [bortezomib]: the “cells annexin V positive” value with MM.1S cells [3] was 50%. In addition, the results for the “colony number per 10,000 cells plated” value with RPMI-8226 cells (100 nM bortezomib for 5 hours) and in the data set on RPMI-8226 cells (200 nM bortezomib for 5 hours) were 39 colonies and 7 colonies, respectively. Further, in data set [4], the inhibition is 30.8% and 19.6%. For the same molecule, the “tumor growth inhibition (TGI)” value in data set [5] is 38%. Besides, the viability at 0.002 µM in data set [6] (Homo sapiens, 48 h, read-out: tumor cell viability) was 80%.
Turning to `C[C@@H]1C[C@H]2[C@@H]3CCC4=CC(=O)C=C[C@]4(C)[C@@]3(F)[C@@H](O)C[C@]2(C)[C@@]1(O)C(=O)CO` [dexamethasone], in [7] (Homo sapiens, MM1.S, […] dexamethasone, cells cultured one month in salmeterol (64 nM), Table 48, read-out: inhibition of proliferation), the inhibition at […] worked out at 51%. The “Annexin V/PI+ cells” value with MM.1S cells [8] (cells exposed to salmeterol for one month, 8 nM dexamethasone, 48 hours) came out at 47%; in the data set on MM.1S cells [8] (cells exposed to salmeterol for one month, 80 nM dexamethasone, 48 hours), 65%; with MM.1S cells [8] (control cells, 8 nM dexamethasone, 48 hours (FIG. 5)), 8%; with MM.1S cells [8] (control cells, 80 nM dexamethasone, 48 hours (FIG. 5)), 45%. Besides, in [9], the “study day by which all animals of the group were removed” value is given as at most 66 study day. The “percent inhibition of cell proliferation” value in data set [1] (Clenbuterol 0 μM (single agent), Dexamethasone (μM): 0.15, 0.076, 0.038, 0.019, 0.0095, no ICI 118,551) was 47% and 38% and 70% and 63% and 56%; in data set [1] (naïve MM.1S, Salbutamol 0 μM (single agent), DEX (μM) by row: r8 2.0, r9 0.666, r10 0.23, r11 0.074, r12 0.024, r13 0.0082, r14 0.00274, r15 0.0009), 75%; in data set [10] (+10 ng/ml IL-6), 26%; in [10] (no IL-6) it was 45% and 44% and 32% and 27%. Moreover, the inhibition at 0.15 µM in data set [11] (read-out: inhibition of proliferation, 0.15 μM dexamethasone, 10 ng/ml IL-6 (Table 53)) was found to be 24%; in data set [11] (read-out: inhibition of proliferation, 0.15 μM dexamethasone, no IL-6 (Table 52)), 52%. Also, the inhibition in data set [4] was found to be 39%; in [12] it was 6.13%. In addition, the “Reduction in Cell Viability” value in data set [6] (patient 1 tumor cells, 48 hours, MTT, Salmeterol 0 nM (single agent), DEX (μM): 4.0, 2.0, 1.0, 0.5, 0.25, 0.125, 0.0625) is 50% and 56% and 53% and 46% and 47%.
For the molecule `CC(C)(C)NCC(O)c1ccc(O)c(CO)c1` (stereo not drawn) [salbutamol], the “percent inhibition of cell proliferation” value in data set [7] (Salbutamol 0.00375 μM) is −5.8%. In addition, in data set [7] (Salbutamol 0.00625 μM), the “percent inhibition of cell proliferation” value came to 4.6%. Besides, in data set [7] (Salbutamol 0.0125 μM), the “percent inhibition of cell proliferation” value was −1.9%. Moreover, the “percent inhibition of cell proliferation” value in data set [7] (Salbutamol 0.05 μM) was 1.5%. Besides, the “percent inhibition of cell proliferation” value in [7] (Salbutamol 0.1 μM) came to 11%. For the same molecule, the “percent inhibition of cell proliferation” value in data set [7] (Salbutamol 0.2 μM) is on record as 6.8%. In data set [1] (setting [14]), the inhibition at 9.1 pM came out at 10%, the inhibition at 0.00375 µM worked out at 15%, the inhibition at 0.00625 µM is 30% and the inhibition at 0.0125 µM is 39%. Also, in data set [1] (setting [14]), the inhibition at 0.05 µM was 51%, the inhibition at 0.1 µM stood at 55% and the inhibition at 0.2 µM amounted to 58%. Besides, the inhibition of proliferation in [13] (MM.1R transfected with A2A receptor siRNA or control siRNA) is reported as 65-68%. In [13] (MM.1R transfected with two different siRNA targeting the beta 2 receptor), the Antiproliferative Activity is listed as 39-45%.

Source of the values: patent publication US20100009934A1, “BETA ADRENERGIC RECEPTOR AGONISTS FOR THE TREATMENT OF B-CELL PROLIFERATIVE DISORDERS” (CombinatoRx, Incorporated, priority 2008, published 2010).
